Reference: patent US11591336B2 (Relay Therapeutics, Inc., priority 2017, dated 2023)

Target: SHP2 (Homo sapiens (Human), UniProt Q06124)
Assay: SHP2 Allosteric Inhibition Assay (DiFMUP prompt fluorescence)
Format: biochemical
Settings: 0.25 nM SHP2 activated with 0.5 μM peptide IRS1_pY1172(dPEG8)pY1222; substrate DiFMUP 100 μM; 25° C.

SHP2, sequence (Q06124 whole entry): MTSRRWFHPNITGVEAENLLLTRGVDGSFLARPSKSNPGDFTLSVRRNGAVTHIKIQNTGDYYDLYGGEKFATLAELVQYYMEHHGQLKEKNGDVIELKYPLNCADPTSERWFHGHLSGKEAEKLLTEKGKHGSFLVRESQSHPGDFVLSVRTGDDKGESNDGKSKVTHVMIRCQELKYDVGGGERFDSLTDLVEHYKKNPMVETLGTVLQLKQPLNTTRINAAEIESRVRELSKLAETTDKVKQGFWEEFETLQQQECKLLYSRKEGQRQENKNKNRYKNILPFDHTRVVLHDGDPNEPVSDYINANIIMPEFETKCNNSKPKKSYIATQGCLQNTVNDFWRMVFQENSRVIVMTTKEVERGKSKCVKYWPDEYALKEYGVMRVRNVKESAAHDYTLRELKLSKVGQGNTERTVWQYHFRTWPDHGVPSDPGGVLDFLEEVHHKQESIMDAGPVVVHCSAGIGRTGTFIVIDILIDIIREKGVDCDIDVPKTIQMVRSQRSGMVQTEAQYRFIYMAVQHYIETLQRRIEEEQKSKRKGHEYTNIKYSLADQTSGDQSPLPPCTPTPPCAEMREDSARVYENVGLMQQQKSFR

Structure (SMILES): C[C@@H]1OCC2(CCN(c3cnc4c(N5CCCc6sccc65)n[nH]c4n3)CC2)[C@@H]1N [Compound 394]
- IC50: < 1 µM

Structure (SMILES): C[C@@H]1OCC2(CCN(c3cnc4c(N5CCCc6c5ccnc6N5CCOC5=O)n[nH]c4n3)CC2)[C@@H]1N [Compound 225]
- IC50: < 1 µM
